Data reported in patent publication US7067519B2 (priority 2002, dated 2006).

Experiments:
human orexin-1 receptor = molecular target: T1, human orexin-1 receptor (Homo sapiens, UniProt O43613); assay: Intracellular calcium measurement (FLIPR), OX1 receptor antagonistic activity; format: cell-based; details: CHO cells expressing human orexin-1 receptor, agonist 10 nM human orexin-A, fluo-3 calcium
T1 construct: expressed in transfected cells; host or cells: CHO cells (G418 selection)
T1 sequence (O43613 1-425): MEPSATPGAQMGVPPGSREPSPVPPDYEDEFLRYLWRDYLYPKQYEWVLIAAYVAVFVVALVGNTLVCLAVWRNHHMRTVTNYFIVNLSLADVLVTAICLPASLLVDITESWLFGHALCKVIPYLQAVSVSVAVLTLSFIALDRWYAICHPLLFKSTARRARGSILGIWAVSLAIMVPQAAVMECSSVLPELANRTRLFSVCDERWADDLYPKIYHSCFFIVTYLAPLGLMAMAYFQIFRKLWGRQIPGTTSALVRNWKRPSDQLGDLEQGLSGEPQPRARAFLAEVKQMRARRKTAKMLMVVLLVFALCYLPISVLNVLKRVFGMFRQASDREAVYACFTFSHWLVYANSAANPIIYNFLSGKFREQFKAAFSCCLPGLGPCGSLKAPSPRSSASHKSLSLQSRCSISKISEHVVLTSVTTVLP
Description: (§1) Determination of OX1 and OX2 Receptor Antagonistic Activities
(§2) The OX1 and OX2 receptor antagonistic activity of the compounds of formula (I) was determined in accordance with the following experimental method.
(§3) Intracellular Calcium Measurements
(§4) Chinese hamster ovary (CHO) cells expressing the human orexin-1 receptor or the human orexin-2 receptor, were grown in culture medium (Ham F-12 with L-Glutamine) containing 300 μg/ml G418, 100 U/ml penicillin, 100 μg/ml streptomycin and 10% inactivated foetal calf serum (FCS).
(§5) The cells were seeded at 80'000 cells/well into 96-well black clear bottom sterile plates (Costar) which had been precoated with 1% gelatine in Hanks' Balanced Salt Solution (HBSS). All reagents were from Gibco BRL.
(§6) The seeded plates were incubated overnight at 37° C. in 5% CO2.
(§7) Human orexin-A as an agonist was prepared as 1 mM stock solution in methanol:water (1:1), diluted in HBSS containing 0.1% bovine serum albumin (BSA) and 2 mM HEPES for use in the assay at a final concentration of 10 nM.
(§8) Antagonists were prepared as 10 mM stock solution in DMSO, then diluted in 96-well plates, first in DMSO, then in HBSS containing 0.1% bovine serum albumin (BSA) and 2 mM HEPES.
(§9) On the day of the assay, 100 μl of loading medium (HBSS containing 1% FCS, 2 mM HEPES, 5 mM probenecid (Sigma) and 3 μM of the fluorescent calcium indicator fluo-3 AM (1 mM stock solution in DMSO with 10% pluronic acid) (Molecular Probes) was added to each well.
(§10) The 96-well plates were incubated for 60 min at 37° C. in 5% CO2. The loading solution was then aspirated and cells were washed 3 times with 200 μl HBSS containing 2.5 mM probenecid, 0.1% BSA, 2 mM HEPES. 100 μl of that same buffer was left in each well. Within the Fluorescent Imaging Plate Reader (FLIPR, Molecular Devices), antagonists were added to the plate in a volume of 50 μl, incubated for 20 min and finally 100 μl of
(§11) agonist was added. Fluorescence was measured for each well at 1 second intervals, and the height of each fluorescence peak was compared to the height of the fluorescence peak induced by 10 nM orexin-A with buffer in place of antagonist. For each antagonist, IC50 value (the concentration of compound needed to inhibit 50% of the agonistic response) was determined.

human orexin-2 receptor = molecular target: T2, human orexin-2 receptor (Homo sapiens, UniProt O43614); assay: Intracellular calcium measurement (FLIPR), OX2 receptor antagonistic activity; format: cell-based; details: CHO cells expressing human orexin-2 receptor, agonist 10 nM human orexin-A, fluo-3 calcium
T2 construct: expressed in transfected cells; host or cells: CHO cells (G418 selection)
T2 sequence (O43614 1-444): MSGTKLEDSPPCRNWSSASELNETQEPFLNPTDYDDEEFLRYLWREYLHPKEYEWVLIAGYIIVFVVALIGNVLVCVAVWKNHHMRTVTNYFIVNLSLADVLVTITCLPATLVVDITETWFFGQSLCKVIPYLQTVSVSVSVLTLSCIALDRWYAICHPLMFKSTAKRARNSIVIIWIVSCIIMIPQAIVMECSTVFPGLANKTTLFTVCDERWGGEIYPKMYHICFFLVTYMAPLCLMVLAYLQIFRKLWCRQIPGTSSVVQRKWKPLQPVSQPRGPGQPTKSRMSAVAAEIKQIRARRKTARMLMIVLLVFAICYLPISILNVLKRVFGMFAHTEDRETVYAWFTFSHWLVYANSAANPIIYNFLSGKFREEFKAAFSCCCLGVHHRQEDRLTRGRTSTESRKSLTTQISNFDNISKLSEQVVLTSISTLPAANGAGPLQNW
Description: as §1, §2, §3, §4, §5, §6, §7, §8, §9, §10, §11

SMILES	IC50 (human orexin-1 receptor)	IC50 (human orexin-2 receptor)
CCc1ccccc1NC(=O)N(C(C)c1ccccc1)C1CCCn2c1nc1cc(F)c(F)cc1c2=O (stereo not shown) [Example 30, 1-(2,3-Difluoro-11-oxo-6,8,9,11-tetrahydro-7H-pyrido[2,1-b]quinazolin-6-yl)-3-(2-ethyl-phenyl)-1-(1-phenyl-ethyl)-urea]	261 nM	16 nM
C[C@@H](c1ccccc1)N(C(=O)Nc1ccccc1OC(F)(F)F)C1CCn2c1nc1cccc(C(F)(F)F)c1c2=O (stereo partly drawn) [Example 49, 1-(9-Oxo-8-trifluoromethyl-1,2,3,9-tetrahydro-pyrrolo[2,1-b]quinazolin-3-yl)-1-((S)-1-phenyl-ethyl)-3-(2-trifluoromethoxy-phenyl)-urea]	12 nM	16 nM
CCCc1ccccc1NC(=O)N(C(C)c1ccccc1)C1CCn2c1nc1cccc(Cl)c1c2=O (stereo not shown) [Example 44, 1-(8-Chloro-9-oxo-1,2,3,9-tetrahydro-pyrrolo[2,1-b]quinazolin-3-yl)-1-(1-phenyl-ethyl)-3-(2-n-propyl-phenyl)-urea]	67 nM	27 nM
CCCc1ccccc1NC(=O)N(C(C)c1ccccc1)C1CCCn2c1nc1cc(F)ccc1c2=O (stereo not shown) [Example 33, 1-(3-Fluoro-11-oxo-6,8,9,11-tetrahydro-7H-pyrido[2,1-b]quinazolin-6-yl)-1-(1-phenyl-ethyl)-3-(2-n-propyl-phenyl)-urea]	127 nM	18 nM
CCCc1ccccc1NC(=O)N(C(C)c1ccccc1)C1CCCn2c1nc1cc(F)c(F)cc1c2=O (stereo not shown) [Example 28, 1-(2,3-Difluoro-11-oxo-6,8,9,11-tetrahydro-7H-pyrido[2,1-b]quinazolin-6-yl)-1-(1-phenyl-ethyl)-3-(2-n-propyl-phenyl)-urea]	153 nM	17 nM
CCCc1ccccc1NC(=O)N(C1CCn2c1nc1cccc(C(F)(F)F)c1c2=O)[C@@H](C)c1ccccc1 (stereo partly drawn) [Example 50, 1-(9-Oxo-8-trifluoromethyl-1,2,3,9-tetrahydro-pyrrolo[2,1-b]quinazolin-3-yl)-1-((S)-1-phenyl-ethyl)-3-(2-n-propyl-phenyl)-urea]	14 nM	18 nM
CCc1ccccc1NC(=O)N(C1CCn2c1nc1cccc(C(F)(F)F)c1c2=O)[C@@H](C)c1ccccc1 (stereo partly drawn) [Example 51, 3-(2-Ethyl-phenyl)-1-(9-oxo-8-trifluoromethyl-1,2,3,9-tetrahydro-pyrrolo[2,1-b]quinazolin-3-yl)-1-((S)-1-phenyl-ethyl)-urea]	28 nM	21 nM
CC(c1ccccc1)N(C(=O)Nc1ccccc1OC(F)(F)F)C1CCn2c1nc1cc(F)ccc1c2=O (stereo not shown) [Example 7, 1-(6-Fluoro-9-oxo-1,2,3,9-tetrahydro-pyrrolo[2,1-b]quinazolin-3-yl)-1-(1-phenyl-ethyl)-3-(2-trifluoromethoxy-phenyl)-urea]	2400 nM	27 nM
CCOc1ccccc1NC(=O)N(C(C)c1ccccc1)C1CCn2c1nc1ccccc1c2=O (stereo not shown) [Example 3, 3-(2-Ethoxy-phenyl)-1-(9-oxo-1,2,3,9-tetrahydro-pyrrolo[2,1-b]quinazolin-3-yl)-1-(1-phenyl-ethyl)-urea]	115 nM	79 nM
CC(c1ccccc1)N(C(=O)Nc1ccccc1OC(F)(F)F)C1CCn2c1nc1cccc(Cl)c1c2=O (stereo not shown) [Example 40]	37 nM	14 nM
CC(c1ccccc1)N(C(=O)Nc1ccccc1-c1ccccc1)C1CCn2c1nc1cccc(Cl)c1c2=O (stereo not shown) [Example 41, 3-Biphenyl-2-yl-1-(8-chloro-9-oxo-1,2,3,9-tetrahydro-pyrrolo[2,1-b]quinazolin-3-yl)-1-(1-phenyl-ethyl)-urea]	52 nM	14 nM
